Values of other authors as cited in US20140235496A1, “STIMULUS-ELICITED GENOMIC PROFILE MARKERS OF A NEURODEGENERATIVE CONDITION” (Blanchette Rockefeller Neurosciences Institute, priority 2011, published 2014).

Tested on: PKC
Details: shown to be effective; see US 2010/0022645

## CCC1CC1CC1CC1CC1CC1CC1CC1CC1CC1CC1CC1CCC(=O)O (stereo not shown) [DHA-CP6]
  effective concentration: 10 nM
